# Key:
# isovaleric acid [1] = assay: Malodor Reduction Test (cross-adaptation, Labeled Magnitude Scale); type: in vivo; conditions: Homo sapiens, inhaled or nasal; 1% (v/v) test substance in diethylphthalate sniffed before 56 ppm aqueous isovaleric acid; perceived intensity on LMS
# Procedure: a) Malodor Reduction Test
# Each subject's sense of smell was tested using a smell identification test and an isovaleric acid threshold test. To pass the smell ID test the subject had to correctly identify the aromas of peach, spearmint, cinnamon, lime, pineapple and clove. To pass the isovaleric acid threshold test subjects had to detect the odor of isovaleric acid in a one part-per-million (1 ppm weight/volume) aqueous isovaleric acid solution. This is above the 0.12 ppm threshold for a person with a normal sense of smell and below the 5.0 ppm threshold for a person with a specific anosmia to isovaleric acid (Amoore 1977). The use of an odor ID and a threshold test to identify subjects with a normal sense of smell is standard practice, (Cain, Gent et al. 1983).
# The target malodor, isovaleric acid, was presented to the subject in a 60 mL, wide mouth amber, screw cap jar. The concentration of isovaleric acid in water that gave an odor intensity of strong or higher on the Labeled Magnitude Scale was 56 parts-per-million (weight/volume). Five milliliters of a 1% (v/v) solution of the test substance in diethylphthalate (DEP) presented in a 20 ml glass vial were used to evaluate the blocker candidate. The labeled the Labeled Magnitude Scale (LMS, FIG. 1) was developed for the quantitative measurement of taste, irritation and odor intensities (Green, Shaffer et al. 1993; Green, Dalton et al. 1996).
# Evaluation of a sample for malodor blocking was as follows: a) The subject sniffed the isovaleric acid (target) with both nostrils and scored its intensity using the Labeled Magnitude Scale (LMS), b) The subject waited one minute, c) the subject sniffed the candidate compound twice with the left and then twice with the right nostril, d) the subject sniffed the isovaleric acid target sample within 20 seconds with both nostrils and scored its odor using the LMS, and e) the subject waited for two minutes before proceeding to the next test substance.
# The percent malodor reduction (% MOR) was calculated using the following formula:
# % MOR=[1−(IVAInt after CA/IVAINT before CA)]×100 where: IVA isovaleric acid
# The ratio in this equation goes from zero (complete blocking) to one (no blocking). The % malodor reduction moves in the opposite direction and goes from 100% for complete blocking to 0% for no blocking.
# Tables 1, 2, and 3 present the percent malodor reduction for some low molecular weight acetals, alcohols and esters respectively. In each of these tables the standard error of the mean is the standard deviation of the mean divided by the square root of the number of subjects used for the evaluation.
# isovaleric acid [2] = assay: Deodorant stick containing 1% malodor reduction compound, sniff test; type: in vivo, human; conditions: compound at 1% by weight of deodorant stick; stick sniffed twice before 56 ppm aqueous isovaleric acid
# Excerpt: A conventional deodorant stick composition, for example one with the following composition:
# is modified by the addition of compound having a malodor reduction value of 80% or more as measured by the malodor reduction test presented in Example 1 in an amount such that it accounts for 1% by weight of the deodorant stick. […] Examples of effective compounds are: 2-Isobutyl-[1,3]dioxane, 2-Isobutyl-4,5-dimethyl-[1,3]dioxolane, 2-Isobutyl-4-methyl-[1,3]dioxane, 2-Isobutyl-4-methyl-[1,3]dioxolane, 1,1-Dimethoxy-3-methyl-butane, 2-lsobutyl-[1,3]dioxolane, 2-(2-Methyl-cyclopropyl)-[1,3]dioxolane, 2-Isobutyl-5-methyl-[1,3]dioxane, 2-Methylcyclopropane methanol, Ethyl isovalerate, Methyl isovalerate, 2-Methyl-cyclopropanecarboxylic acid methyl ester, n-Propyl isovalerate, and 2-Methyl-cyclopropanecarboxylic acid ethyl ester.
Structure (SMILES),inhibition in vivo at 1 % v/v (isovaleric acid [1]) [%],block of the perception of isovaleric acid by deodorant stick (isovaleric acid [2])
"CCOC(CC(C)C)OCC [1,1-Diethoxy-3-methyl-butane, 1,1-Diethoxy-3-methyl-butane]",78,
"COC(CC(C)C)OC [1,1-Dimethoxy-3-methyl-butane, 1,1-Dimethoxy-3-methyl-butane]",87,completely block
"CC1(CCO)CC1 [2-(1-Methyl-cyclopropyl)-ethanol, 2-(1-Methyl-cyclopropyl)-ethanol]",72,
"CC1CC1C1OCCO1 (stereo not drawn) [2-(2-Methyl-cyclopropyl)-[1,3]dioxolane, 2-(2-Methyl-cyclopropyl)-[1,3]dioxolane]",85,completely block
"CC1CC1CCO (stereo not drawn) [2-(2-Methyl-cyclopropyl)-ethanol, 2-(2-Methyl-cyclopropyl)-ethanol]",77,
OCCC1CC1 [2-Cyclopropylethanol],74,
"CC(C)CC1OC(C)C(C)O1 (stereo not drawn) [2-Isobutyl-4,5-dimethyl-[1,3]dioxolane, 2-Isobutyl-4,5-dimethyl-[1,3]dioxolane]",89,completely block
"CC(C)CC1OCCC(C)O1 (stereo not drawn) [2-Isobutyl-4-methyl-[1,3]dioxane, 2-Isobutyl-4-methyl-[1,3]dioxane]",92,completely block
"CC(C)CC1OCC(C)O1 (stereo not drawn) [2-Isobutyl-4-methyl-[1,3]dioxolane, 2-Isobutyl-4-methyl-[1,3]dioxolane]",89,completely block
"CC(C)CC1OCC(C)CO1 (stereo not drawn) [2-Isobutyl-5-methyl-[1,3]dioxane, 2-Isobutyl-5-methyl-[1,3]dioxane]",80,completely block
"CC(C)CC1OCCCO1 [2-Isobutyl-[1,3]dioxane]",97,completely block
"CC(C)CC1OCCO1 [2-Isobutyl-[1,3]dioxolane]",87,completely block
CCOC(=O)C1CC1C (stereo not drawn) [2-Methyl-cyclopropanecarboxylic acid ethyl ester],81,completely block
CC(C)OC(=O)C1CC1C (stereo not drawn) [2-Methyl-cyclopropanecarboxylic acid isopropyl ester],68,
COC(=O)C1CC1C (stereo not drawn) [2-Methyl-cyclopropanecarboxylic acid methyl ester],89,completely block
CC1CC1CO (stereo not drawn) [2-Methylcyclopropane methanol],85,completely block
"CCC1COC(CC(C)C)O1 (stereo not drawn) [4-Ethyl-2-isobutyl-[1,3]dioxolane, 4-Ethyl-2-isobutyl-[1,3]dioxolane]",78,
CCOC(=O)CC(C)C [Ethyl isovalerate],94,completely block
CC(C)CCO [Isoamyl Alcohol],73,
CC(=O)OCCC(C)C [Isoamylacetate],67,
CC(C)CC(=O)OC(C)C [Isopropyl isovalerate],74,
COC(=O)CC(C)C [Methyl isovalerate],,completely block
CCCOC(=O)CC(C)C [n-Propyl isovalerate],83,completely block

# Source: patent US20030089885A1, “Use of low molecular weight acetal, alcohol, acylated alcohol and ester compounds to block or reduce odor of carboxylic acids” (Senomyx, Inc., priority 2001, published 2003)
